This note sets out measurements from patent US20150005347A1, “NITROGEN-CONTAINING HETEROCYCLIC DERIVATIVE HAVING 2-IMINO GROUP AND PEST CONTROL AGENT INCLUDING THE SAME” (MEIJI SEIKA PHARMA CO., LTD., priority 2012, published 2015).

Assay type in all cases: in vivo
Data set [1] deals with susceptible populations of Laodelphax striatella. Briefly: Soil irrigation test, susceptible populations of Laodelphax striatella. The protocol: (§1) A rice seedling in pot culture was subjected to soil irrigation treatment with a drug solution of the compound of the present invention at a predetermined concentration, which had been prepared so as to be a 10% acetone water. […] Thereafter, the larvae were left to stand in a thermostatic chamber (16 hours of light period-8 hours of dark period) at 25° C. […] The test was performed in duplicate.
(§2) Mortality of larvae(%)={number of dead larvae/(number of survived larvae+number of dead larvae)}×100
Further, for comparison, the test against a populations of Laodelphax striatella which is highly susceptible to fipronil was performed by the same method as described above, and the results thereof are shown in Table 45.
(§3) In addition, for the origin of test pests, bugs collected within the Kumamoto prefecture in 2006 as the drug resistant Laodelphax striatella, and bugs successively reared indoors for a long time as the susceptible populations of Laodelphax striatella were used.

Data set [2] relates to susceptible populations of Sogatella furcifera. Briefly: Soil irrigation test, susceptible populations of Sogatella furcifera. The protocol: as §1, §2
Further, for comparison, the test against a populations of Sogatella furcifera which is highly susceptible to fipronil was performed by the same method as described above, and the results thereof are shown in Table 44.
(§4) In addition, for the origin of test pests, bugs collected within the city of Odawara in 2010 as the drug resistant Sogatella furcifera, and bugs collected within the city of Chigasaki in 1970 and then successively reared indoors for a long time as the susceptible populations of Sogatella furcifera were used.

The subject of data set [3] is Laodelphax striatella exhibiting drug resistance to fipronil. Briefly: Soil irrigation test, Laodelphax striatella exhibiting drug resistance to fipronil. The following applies: drug resistant populations. How it is done:
Test Example 20 Pest Control Test of Laodelphax striatella
as §1, §2, §3

Data set [4] deals with Sogatella furcifera exhibiting drug resistance to fipronil. Description: Soil irrigation test, Sogatella furcifera exhibiting drug resistance to fipronil. The following applies: drug resistant populations. How it is done:
Test Example 19 Pest Control Test of Sogatella furcifera
as §1, §2, §4

As for `N#Cc1nn(-c2c(Cl)cc(C(F)(F)F)cc2Cl)c(N)c1[S+]([O-])C(F)(F)F` (stereo not drawn) [Fipronil], the “Insecticidal effects against Laodelphax striatella (mortality of larvae %), Susceptible populations six days after the treatment” value was 89% in data set [1] (Rate 0.005 mg/pot) and 100% in data set [1] (Rate 0.01 mg/pot). Besides, the “Insecticidal effects against Sogatella furcifera (mortality of larvae %), Susceptible populations six days after the treatment” value in data set [2] (Rate 0.005 mg/pot) was 100%; in data set [2] (Rate 0.01 mg/pot), 100%; in data set [2] (Rate 0.01 mg/pot as printed in the last line (below 0.005)), 78%. Besides, the “Insecticidal effects against Laodelphax striatella (mortality of larvae %), Drug resistant populations six days after the treatment” value in data set [3] (Rate 0.02 mg/pot) is recorded as 76%; in data set [3] (Rate 0.05 mg/pot), 90%. Moreover, the “Insecticidal effects against Sogatella furcifera (mortality of larvae %), Drug resistant populations six days after the treatment” value in data set [4] (Rate 0.01 mg/pot) is given as 40%; in data set [4] (Rate 0.05 mg/pot) it was 90%.
